Data taken from patent publication US20070238098A1, “Method and Kit for Predicting Adverse Side Effects of Paclitaxel Therapy” (priority 2003, published 2007).

Tested on: breast cancer patients
Assay: clinical study of paclitaxel preoperative chemotherapy: adverse side effects graded by NCI-CTC
Type: in vivo, human
Conditions: 54 breast cancer patients, stage II or IIIa; 80 mg/m paclitaxel by intravenous infusion over 1 hour, once a week for 12 weeks
Description: 54 breast cancer patients were registered in a clinical study of paclitaxel preoperative chemotherapy. The following summarizes the criteria for patient selection. 1) Breast cancer patients age 70 or younger in stage II or IIIa as indicated by histopathological testing; and, 2) suitable physiological function (WBC >4,000 mm^3, platelet count […], hemoglobin level >10 g/dl, serum creatinine concentration <1.2 mg/dl, serum total bilirubin level <1.5 mg/dl, GOT/GPT <60/70). Patients who received proceeding chemotherapy or radiation therapy were excluded. Namely, all 54 patients who participated in this clinical study of paclitaxel preoperative chemotherapy were nearly at the same stage either clinically or histologically, and had no prior history of chemotherapy. […]
White blood cell count, red blood cell count, hemoglobin level and platelet count were measured weekly for each patient to evaluate the presence or absence of adverse side effects. Adverse side effects observed during the course of therapy were evaluated and graded based on the Common Toxicity Criteria of the US National Cancer Institute (NCI-CTC) (see Trotti, A., et al., Common toxicity criteria: version 2.0—an improved reference for grading the acute effects of cancer treatment: impact on radiotherapy, Int. J. Radiat. Oncol. Biol. Phys., 47: 13-47, 2000). […]

## CC(=O)O[C@H]1C(=O)[C@@]2(C)[C@H]([C@H](OC(=O)c3ccccc3)[C@]3(O)C[C@H](OC(=O)[C@H](O)[C@@H](NC(=O)c4ccccc4)c4ccccc4)C(C)=C1C3(C)C)[C@]1(OC(C)=O)CO[C@@H]1C[C@@H]2O [paclitaxel]
  granulocytopenia observed (most frequently observed adverse side effect; NCI-CTC grade 1 to 4): 24 patients
